# US8541418B2, “Inhibitors of polo-like kinase” (Elan Pharmaceutical, Inc., priority 2009, dated 2013)
# Assays:
# Format in all cases: biochemical
# [1] = molecular target: PLK1 (Homo sapiens, UniProt P53350); assay: PLK TR-FRET peptide assay, PLK1; conditions: GST-PLK1, 60 min reaction
# [2] = molecular target: PLK2 (Homo sapiens, UniProt Q9NYY3); assay: PLK TR-FRET peptide assay, PLK2; conditions: PLK TR-FRET peptide assay, GST-PLK2, 60 min reaction; read-out: Plk2 IC50
# [3] = molecular target: PLK3 (Homo sapiens, UniProt Q9H4B4); assay: PLK TR-FRET peptide assay, PLK3; conditions: GST-PLK3, 15 min reaction, read-out: Plk3 IC50
# Sequence of PLK3 (Q9H4B4 whole entry): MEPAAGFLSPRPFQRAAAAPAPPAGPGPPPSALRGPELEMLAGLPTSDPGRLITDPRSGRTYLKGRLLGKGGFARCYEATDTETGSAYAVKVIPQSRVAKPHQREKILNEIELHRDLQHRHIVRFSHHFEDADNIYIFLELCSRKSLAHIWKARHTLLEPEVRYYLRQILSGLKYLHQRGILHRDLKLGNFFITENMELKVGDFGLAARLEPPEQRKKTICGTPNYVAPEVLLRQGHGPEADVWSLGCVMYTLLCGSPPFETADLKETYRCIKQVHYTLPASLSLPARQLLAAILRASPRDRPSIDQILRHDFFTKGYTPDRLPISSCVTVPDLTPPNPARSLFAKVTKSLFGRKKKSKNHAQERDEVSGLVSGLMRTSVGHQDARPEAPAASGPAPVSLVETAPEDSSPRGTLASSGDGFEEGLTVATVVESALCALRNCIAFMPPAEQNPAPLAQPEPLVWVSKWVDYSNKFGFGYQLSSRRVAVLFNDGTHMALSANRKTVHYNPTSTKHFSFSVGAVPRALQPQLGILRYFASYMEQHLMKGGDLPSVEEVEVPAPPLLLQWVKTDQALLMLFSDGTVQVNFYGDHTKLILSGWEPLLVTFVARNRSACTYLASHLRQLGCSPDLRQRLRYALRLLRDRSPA
# Sequence of PLK1 (P53350 whole entry): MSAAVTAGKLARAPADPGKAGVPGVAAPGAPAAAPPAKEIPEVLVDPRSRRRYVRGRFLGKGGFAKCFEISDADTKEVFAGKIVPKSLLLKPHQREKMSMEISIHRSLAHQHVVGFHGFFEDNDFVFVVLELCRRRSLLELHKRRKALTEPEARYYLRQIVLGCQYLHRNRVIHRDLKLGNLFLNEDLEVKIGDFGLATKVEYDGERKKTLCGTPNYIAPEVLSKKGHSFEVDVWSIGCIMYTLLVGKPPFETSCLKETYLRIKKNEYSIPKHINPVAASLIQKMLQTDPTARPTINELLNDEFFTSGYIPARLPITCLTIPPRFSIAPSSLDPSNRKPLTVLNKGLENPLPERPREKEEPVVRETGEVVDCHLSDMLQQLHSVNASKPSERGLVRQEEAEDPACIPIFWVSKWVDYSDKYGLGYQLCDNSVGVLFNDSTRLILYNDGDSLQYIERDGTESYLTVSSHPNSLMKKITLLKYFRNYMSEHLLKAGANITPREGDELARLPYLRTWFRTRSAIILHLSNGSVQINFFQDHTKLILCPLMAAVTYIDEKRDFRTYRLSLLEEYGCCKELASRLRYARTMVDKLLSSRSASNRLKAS
# Sequence of PLK2 (Q9NYY3 whole entry): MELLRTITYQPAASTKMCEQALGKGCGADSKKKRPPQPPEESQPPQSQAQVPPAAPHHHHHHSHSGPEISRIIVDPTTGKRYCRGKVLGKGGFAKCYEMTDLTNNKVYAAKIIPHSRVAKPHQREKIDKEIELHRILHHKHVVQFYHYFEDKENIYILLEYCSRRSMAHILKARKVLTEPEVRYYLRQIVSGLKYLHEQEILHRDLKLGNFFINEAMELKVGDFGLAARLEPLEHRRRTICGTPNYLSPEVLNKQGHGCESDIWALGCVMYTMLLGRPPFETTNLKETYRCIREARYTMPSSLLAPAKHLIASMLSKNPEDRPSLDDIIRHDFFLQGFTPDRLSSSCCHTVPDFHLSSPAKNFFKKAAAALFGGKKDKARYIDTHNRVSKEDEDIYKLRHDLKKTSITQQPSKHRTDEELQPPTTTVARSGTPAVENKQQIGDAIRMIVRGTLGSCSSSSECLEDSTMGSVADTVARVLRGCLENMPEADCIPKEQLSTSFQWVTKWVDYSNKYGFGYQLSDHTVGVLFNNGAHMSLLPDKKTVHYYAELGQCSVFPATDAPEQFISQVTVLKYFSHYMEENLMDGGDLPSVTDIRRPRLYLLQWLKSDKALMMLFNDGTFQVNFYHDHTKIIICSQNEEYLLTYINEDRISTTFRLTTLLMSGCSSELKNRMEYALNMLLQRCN
SMILES,IC50 [1] [nM],IC50 [2] [nM],IC50 [3] [nM]
"CC[C@@H]1C(=O)N(C)c2cnc(-n3ccnc3-c3ccccc3)nc2N1C1CCC1 [Example 47, (R)-8-cyclobutyl-7-ethyl-5-methyl-2-(2-phenyl-1H-imidazol-1-yl)-7,8-dihydropteridin-6(5H)-one]",< 1000,< 1000,1000 to 10000
"CC[C@@H]1C(=O)N(C)c2cnc(-n3ccnc3-c3ccc(F)c(F)c3)nc2N1C1CCC1 [Example 48, (R)-8-cyclobutyl-2-(2-(3,4-difluorophenyl)-1H-imidazol-1-yl)-7-ethyl-5-methyl-7,8-dihydropteridin-6(5H)-one]",1000 to 10000,< 1000,10000 to 50000
"CC[C@@H]1C(=O)N(C)c2cnc(-n3ccnc3-c3ccccc3F)nc2N1C1CCC1 [Example 49, (R)-8-cyclobutyl-7-ethyl-2-(2-(2-fluorophenyl)-1H-imidazol-1-yl)-5-methyl-7,8-dihydropteridin-6(5H)-one]",< 1000,< 1000,1000 to 10000
"CC[C@@H]1C(=O)N(C)c2cnc(-n3ccnc3-c3ccc(F)cc3)nc2N1C1CCC1 [Example 50, (R)-8-cyclobutyl-7-ethyl-2-(2-(4-fluorophenyl)-1H-imidazol-1-yl)-5-methyl-7,8-dihydropteridin-6(5H)-one]",1000 to 10000,< 1000,1000 to 10000
"CC[C@@H]1C(=O)N(C)c2cnc(-c3cccc(NS(C)(=O)=O)c3)nc2N1C1CCCC1 [Example 53, (R)—N-(3-(8-cyclopentyl-7-ethyl-5-methyl-6-oxo-5,6,7,8-tetrahydropteridin-2-yl)phenyl)methanesulfonamide]",1000 to 10000,< 1000,1000 to 10000
"CC[C@@H]1C(=O)N(C)c2cnc(-c3cccc(C(=O)N(C)C)c3)nc2N1C1CCCC1 [Example 57, (R)-3-(8-cyclopentyl-7-ethyl-5-methyl-6-oxo-5,6,7,8-tetrahydropteridin-2-yl)-N,N-dimethylbenzamide]",1000 to 10000,1000 to 10000,> 50000
"CC[C@@H]1C(=O)N(C)c2cnc(-n3cnc(-c4nccs4)c3)nc2N1C1CCCC1 [Example 60, (R)-8-cyclopentyl-7-ethyl-5-methyl-2-(4-(thiazol-2-yl)-1H-imidazol-1-yl)-7,8-dihydropteridin-6(5H)-one]",< 1000,< 1000,1000 to 10000
"CC[C@@H]1C(=O)N(C)c2cnc(-c3ccc(S(C)(=O)=O)cc3)nc2N1C1CCCC1 [Example 64, (R)-8-cyclopentyl-7-ethyl-5-methyl-2-(4-(methylsulfonyl)phenyl)-7,8-dihydropteridin-6(5H)-one]",< 1000,< 1000,1000 to 10000
"CC[C@@H]1C(=O)N(C)c2cnc(-c3cccc(C(N)=O)c3)nc2N1C1CCCC1 [Example 66, (R)-3-(8-cyclopentyl-7-ethyl-5-methyl-6-oxo-5,6,7,8-tetrahydropteridin-2-yl)benzamide]",< 1000,< 1000,1000 to 10000
"CC[C@@H]1C(=O)N(C)c2cnc(-n3ccnc3-c3cccnc3)nc2N1C1CCCC1 [Example 67, (R)-8-cyclopentyl-7-ethyl-5-methyl-2-(2-(pyridin-3-yl)-1H-imidazol-1-yl)-7,8-dihydropteridin-6(5H)-one]",< 1000,< 1000,< 1000
"CC[C@@H]1C(=O)N(C)c2cnc(-c3cccc(S(C)(=O)=O)c3)nc2N1C1CCCC1 [Example 71, (R)-8-cyclopentyl-7-ethyl-5-methyl-2-(3-(methylsulfonyl)phenyl)-7,8-dihydropteridin-6(5H)-one]",1000 to 10000,1000 to 10000,10000 to 50000
"CC[C@@H]1C(=O)N(C)c2cnc(-c3cccc(OCc4ccccc4)c3)nc2N1C1CCCC1 [Example 72, (R)-2-(3-(benzyloxy)phenyl)-8-cyclopentyl-7-ethyl-5-methyl-7,8-dihydropteridin-6(5H)-one]",> 50000,10000 to 50000,> 50000
"CC[C@@H]1C(=O)N(C)c2cnc(-n3ccnc3-c3nccs3)nc2N1C1CCCC1 [Example 74, (R)-8-cyclopentyl-7-ethyl-5-methyl-2-(2-(thiazol-2-yl)-1H-imidazol-1-yl)-7,8-dihydropteridin-6(5H)-one]",< 1000,< 1000,< 1000
"CC[C@@H]1C(=O)N(C)c2cnc(-n3ccnc3Cc3ccccc3)nc2N1C1CCCC1 [Example 75, (R)-2-(2-benzyl-1H-imidazol-1-yl)-8-cyclopentyl-7-ethyl-5-methyl-7,8-dihydropteridin-6(5H)-one]",1000 to 10000,< 1000,10000 to 50000
"CC[C@@H]1C(=O)N(C)c2cnc(-n3ccnc3N3CCCC3=O)nc2N1C1CCCC1 [Example 82, (R)-8-cyclopentyl-7-ethyl-5-methyl-2-(2-(2-oxopyrrolidin-1-yl)-1H-imidazol-1-yl)-7,8-dihydropteridin-6(5H)-one]",1000 to 10000,1000 to 10000,10000 to 50000
"CC[C@@H]1C(=O)N(C)c2cnc(-n3ccnc3C3=CCOCC3)nc2N1C1CCCC1 [Example 84, (R)-8-cyclopentyl-2-(2-(3,6-dihydro-2H-pyran-4-yl)-1H-imidazol-1-yl)-7-ethyl-5-methyl-7,8-dihydropteridin-6(5H)-one]",1000 to 10000,< 1000,10000 to 50000
"CC[C@@H]1C(=O)N(C)c2cnc(-c3ccncc3-c3ccccc3)nc2N1C1CCCC1 [Example 85, (R)-8-cyclopentyl-7-ethyl-5-methyl-2-(3-phenylpyridin-4-yl)-7,8-dihydropteridin-6(5H)-one]",< 1000,< 1000,< 1000
"CC[C@@H]1C(=O)N(C)c2cnc(-n3ccnc3N3CCCC3)nc2N1C1CCCC1 [Example 86, (R)-8-cyclopentyl-7-ethyl-5-methyl-2-(2-(pyrrolidin-1-yl)-1H-imidazol-1-yl)-7,8-dihydropteridin-6(5H)-one]",10000 to 50000,1000 to 10000,> 50000
"CC[C@@H]1C(=O)N(C)c2cnc(-n3ccnc3N3CCOCC3)nc2N1C1CCCC1 [Example 87, (R)-8-cyclopentyl-7-ethyl-5-methyl-2-(2-morpholino-1H-imidazol-1-yl)-7,8-dihydropteridin-6(5H)-one]",1000 to 10000,1000 to 10000,> 50000
"CC[C@@H]1C(=O)N(C)c2cnc(-n3ccnc3N3CCN(C)CC3)nc2N1C1CCCC1 [Example 88, (R)-8-cyclopentyl-7-ethyl-5-methyl-2-(2-(4-methylpiperazin-1-yl)-1H-imidazol-1-yl)-7,8-dihydropteridin-6(5H)-one]",10000 to 50000,10000 to 50000,> 50000
"CC[C@@H]1C(=O)N(C)c2cnc(-n3ccnc3-n3cccn3)nc2N1C1CCCC1 [Example 89, (R)-2-(2-(1H-pyrazol-1-yl)-1H-imidazol-1-yl)-8-cyclopentyl-7-ethyl-5-methyl-7,8-dihydropteridin-6(5H)-one]",< 1000,< 1000,< 1000
"CC[C@@H]1C(=O)N(C)c2cnc(-n3ccnc3C3CCOCC3)nc2N1C1CCCC1 [Example 90, (R)-8-cyclopentyl-7-ethyl-5-methyl-2-(2-(tetrahydro-2H-pyran-4-yl)-1H-imidazol-1-yl)-7,8-dihydropteridin-6(5H)-one]",1000 to 10000,1000 to 10000,10000 to 50000
"CC[C@@H]1C(=O)N(C)c2cnc(-c3ccncc3N)nc2N1C1CCCC1 [Example 91, (R)-2-(3-aminopyridin-4-yl)-8-cyclopentyl-7-ethyl-5-methyl-7,8-dihydropteridin-6(5H)-one]",< 1000,< 1000,1000 to 10000
"CC[C@@H]1C(=O)N(C)c2cnc(-c3ccncc3NC(=O)OC(C)(C)C)nc2N1C1CCCC1 [Example 92, (R)-tert-butyl 4-(8-cyclopentyl-7-ethyl-5-methyl-6-oxo-5,6,7,8-tetrahydropteridin-2-yl)pyridin-3-ylcarbamate]",10000 to 50000,1000 to 10000,> 50000
"CC[C@@H]1C(=O)N(C)c2cnc(-c3ccncc3N)nc2N1C(C)C [Example 93, (R)-2-(3-aminopyridin-4-yl)-7-ethyl-8-isopropyl-5-methyl-7,8-dihydropteridin-6(5H)-one]",1000 to 10000,< 1000,> 50000
"CC[C@@H]1C(=O)N(C)c2cnc(-c3ccncc3NC(=O)OC(C)(C)C)nc2N1C(C)C [Example 94, (R)-tert-butyl 4-(7-ethyl-8-isopropyl-5-methyl-6-oxo-5,6,7,8-tetrahydropteridin-2-yl)pyridin-3-ylcarbamate]",10000 to 50000,1000 to 10000,> 50000
"CC[C@@H]1C(=O)N(C)c2cnc(-c3ccncc3-c3ccccc3)nc2N1C1CCC1 [Example 96, (R)-8-cyclobutyl-7-ethyl-5-methyl-2-(3-phenylpyridin-4-yl)-7,8-dihydropteridin-6(5H)-one]",< 1000,< 1000,< 1000
"CC[C@@H]1C(=O)N(C)c2cnc(-c3ccccc3C(F)(F)F)nc2N1C1CCC1 [Example 98, (R)-8-cyclobutyl-7-ethyl-5-methyl-2-(2-(trifluoromethyl)phenyl)-7,8-dihydropteridin-6(5H)-one]",10000 to 50000,1000 to 10000,> 50000
"CC[C@@H]1C(=O)N(C)c2cnc(-n3ccnc3-c3cncc(F)c3)nc2N1C1CCCC1 [Example 99, (R)-8-cyclopentyl-7-ethyl-2-(2-(5-fluoropyridin-3-yl)-1H-imidazol-1-yl)-5-methyl-7,8-dihydropteridin-6(5H)-one]",< 1000,< 1000,< 1000
"CC[C@@H]1C(=O)N(C)c2cnc(-c3ccncc3NC(=O)c3ccccc3)nc2N1C1CCCC1 [Example 102, (R)—N-(4-(8-cyclopentyl-7-ethyl-5-methyl-6-oxo-5,6,7,8-tetrahydropteridin-2-yl)pyridin-3-yl)benzamide]",1000 to 10000,< 1000,1000 to 10000
